Assay results as given in article PMC10683025, “Discovery of a Hydroxylamine-Based Brain-Penetrant EGFR Inhibitor for Metastatic Non-Small-Cell Lung Cancer” (Journal of Medicinal Chemistry, 2023).
Like-named read-outs stand apart in the source and are kept apart here.

Columns and labels:
[1] = test system: Ba/F3 EGFR-L858R/C797S cells; assay: CellTiter-Glo cell viability assay; type: cell-based; conditions: Mus musculus, BaF3; 72 h, unadjusted for FBS
Procedure: (§1) The A431, HCC827, SK-BR-3, ZR-75–30, AU565, and Caco-2 cell lines were obtained from ATCC. The NCI-H1975 cell line was obtained from SIBS. The NCI-H3255 cell line was obtained from CoBioer. Engineered Ba/F3 cell lines were obtained from Crown Bioscience. MCKII-MDR1 cells were obtained from The Netherlands Cancer Institute. HEK293 cells were obtained from Invitrogen. A431 cells were cultured in DMEM (Life Technologies) with 10% FBS. HCC827, NCI-H1975, and AU565 cells were cultured in RPMI1640 (Invitrogen) with 10% FBS. NCI-H3255 cells were cultured in BEGM (Lonza) with 10% FBS. Ba/F3 EGFR-del E746_A750/C797S and Ba/F3 EGFR-L858R/C797S cells were cultured in RPMI (Invitrogen) with 10% FBS. SK-BR-3 cells were cultured in McCoy’s 5a (Invitrogen) with 10% FBS. ZR-75-30 cells were cultured in RPMI1640 (Invitrogen) with 20% FBS. Caco-2 and MCKII-MDR1 culture information is given in the Permeability Studies section. HEK293 cells were cultured in DMEM (Gibco) with 10% FBS, 0.1 mM NEAA, 25 mM HEPES, 100 U/mL penicillin-streptomycin, μg/mL blasticidin, and 400 μg/mL Geneticin. All cells were cultured in a humidified incubator with 5% CO2 at 37 °C.
(§2) Viability assays using A431, HCC827, NCI-H1975, NCI-H3255, Ba/F3 EGFR-del E746_A750/C797S, Ba/F3 EGFR-L858R/C797S, AU565, SK-BR-3, and ZR-75-30 cells were performed at Crown BioScience. Cells were plated into 96-well plates at 1500–7000 cells per well and dosed in triplicate (n = 3) in a nine-point, 4-fold dilution series with compounds (0.15 nM to 10 μM) in DMSO and incubated for 72 h. After 72 h, cell viability was assayed by CellTiter-Glo Luminescent Viability Assay (Promega). Dose–response curves were generated and used to calculate the IC50 values which were calculated on GraphPad Prism from the nonlinear regression equation fitted with a sigmoidal dose response and are presented as mean ± SEM.

[2] = test system: Ba/F3 EGFR-del E746_A750/C797S cells; assay: CellTiter-Glo cell viability assay; type: cell-based; conditions: Mus musculus, BaF3; 72 h, unadjusted for FBS
Procedure: as §1, §2

EGFRwt [3] = target: T1, EGFRwt (Homo sapiens, UniProt P00533); assay: KINOMEScan KdELECT Kd determination; type: binding; conditions: wt; read-out: EGFR Kd
T1 construct: purchased Eurofins DiscoverX (contract assay)
T1 sequence (P00533 25-1210): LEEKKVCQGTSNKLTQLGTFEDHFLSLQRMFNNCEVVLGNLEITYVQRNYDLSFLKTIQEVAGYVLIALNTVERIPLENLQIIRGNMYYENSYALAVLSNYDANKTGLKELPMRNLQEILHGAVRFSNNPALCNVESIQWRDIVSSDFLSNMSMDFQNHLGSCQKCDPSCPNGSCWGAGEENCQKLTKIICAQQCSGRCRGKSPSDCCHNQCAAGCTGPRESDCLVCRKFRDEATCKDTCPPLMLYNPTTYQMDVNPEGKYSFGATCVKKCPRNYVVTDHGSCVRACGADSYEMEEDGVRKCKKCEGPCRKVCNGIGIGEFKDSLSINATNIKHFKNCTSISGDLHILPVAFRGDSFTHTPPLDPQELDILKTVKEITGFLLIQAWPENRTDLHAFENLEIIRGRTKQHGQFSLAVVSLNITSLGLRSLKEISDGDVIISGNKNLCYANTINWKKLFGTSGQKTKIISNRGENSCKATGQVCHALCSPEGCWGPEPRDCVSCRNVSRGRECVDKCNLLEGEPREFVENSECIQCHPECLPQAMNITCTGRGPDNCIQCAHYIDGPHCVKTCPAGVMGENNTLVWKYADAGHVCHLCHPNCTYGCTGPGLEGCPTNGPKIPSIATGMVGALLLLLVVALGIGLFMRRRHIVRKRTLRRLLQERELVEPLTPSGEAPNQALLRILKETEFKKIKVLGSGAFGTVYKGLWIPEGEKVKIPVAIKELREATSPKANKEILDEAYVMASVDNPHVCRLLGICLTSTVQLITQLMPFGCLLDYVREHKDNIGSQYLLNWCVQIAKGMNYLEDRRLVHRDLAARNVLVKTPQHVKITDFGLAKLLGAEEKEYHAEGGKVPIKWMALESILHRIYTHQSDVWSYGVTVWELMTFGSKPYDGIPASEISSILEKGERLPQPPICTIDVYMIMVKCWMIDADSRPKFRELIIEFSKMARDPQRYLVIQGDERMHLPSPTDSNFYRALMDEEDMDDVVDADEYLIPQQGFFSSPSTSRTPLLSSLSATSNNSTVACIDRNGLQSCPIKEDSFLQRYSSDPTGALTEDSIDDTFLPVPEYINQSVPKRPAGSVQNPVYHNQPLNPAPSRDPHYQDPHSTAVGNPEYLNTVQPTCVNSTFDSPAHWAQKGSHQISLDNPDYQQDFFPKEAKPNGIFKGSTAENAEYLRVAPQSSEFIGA
Procedure: (§4) In vitro kinase activity (inhibitor binding constants (Kd) and biochemical inhibition (IC50’s)) were assessed by Eurofins DiscoverX (Kd determinations) and Eurofins Cerep (biochemical IC50 determinations).

EGFRwt [4] = target: T1, EGFRwt; assay: KinaseProfiler enzymatic radiometric assay; type: biochemical; conditions: wt, ATP 10 μM; read-out: EGFR IC50
Procedure: as §4

hERG = target: T2, hERG (Homo sapiens, UniProt Q12809); assay: hERG manual patch clamp in HEK293; type: cell-based; conditions: for IC50: human, HEK293 cells stably transfected with hERG, HEK 293 (+hERG), manual patch clamp
T2 construct: host or cells: HEK293
T2 sequence (Q12809 whole entry): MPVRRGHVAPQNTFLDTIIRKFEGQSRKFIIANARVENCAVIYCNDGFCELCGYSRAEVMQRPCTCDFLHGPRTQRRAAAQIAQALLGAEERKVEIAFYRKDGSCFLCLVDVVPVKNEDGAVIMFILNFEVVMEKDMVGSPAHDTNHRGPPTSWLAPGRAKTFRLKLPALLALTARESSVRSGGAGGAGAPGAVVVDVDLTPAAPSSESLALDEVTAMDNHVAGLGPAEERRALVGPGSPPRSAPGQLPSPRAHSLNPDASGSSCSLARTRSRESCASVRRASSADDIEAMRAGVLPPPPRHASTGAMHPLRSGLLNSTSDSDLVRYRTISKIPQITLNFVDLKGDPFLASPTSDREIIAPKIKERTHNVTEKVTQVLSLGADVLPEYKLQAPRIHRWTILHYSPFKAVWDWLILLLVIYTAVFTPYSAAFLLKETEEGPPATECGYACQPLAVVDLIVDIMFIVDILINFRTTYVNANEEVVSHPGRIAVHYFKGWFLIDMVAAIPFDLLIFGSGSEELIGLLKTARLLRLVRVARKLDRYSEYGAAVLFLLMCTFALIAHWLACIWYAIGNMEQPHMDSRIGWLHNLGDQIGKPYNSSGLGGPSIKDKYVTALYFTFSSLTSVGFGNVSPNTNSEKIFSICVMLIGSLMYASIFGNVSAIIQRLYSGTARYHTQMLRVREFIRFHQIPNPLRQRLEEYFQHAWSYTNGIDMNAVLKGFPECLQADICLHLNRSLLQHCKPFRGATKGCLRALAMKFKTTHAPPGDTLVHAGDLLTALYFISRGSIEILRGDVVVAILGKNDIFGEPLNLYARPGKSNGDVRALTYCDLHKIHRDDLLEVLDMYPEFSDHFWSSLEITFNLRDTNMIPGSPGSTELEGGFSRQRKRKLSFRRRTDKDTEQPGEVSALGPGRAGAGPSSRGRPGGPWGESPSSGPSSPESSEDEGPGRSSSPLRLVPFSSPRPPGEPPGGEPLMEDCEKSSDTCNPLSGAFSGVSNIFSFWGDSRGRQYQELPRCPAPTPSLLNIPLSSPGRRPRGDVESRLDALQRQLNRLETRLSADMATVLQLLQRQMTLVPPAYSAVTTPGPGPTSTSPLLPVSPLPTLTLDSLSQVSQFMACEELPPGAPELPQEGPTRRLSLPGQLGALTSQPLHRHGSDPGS

[5] = Metabolic stability in hepatocytes; type: in vitro ADME, Sprague-Dawley rat; conditions: for hepatocyte CLint at 2 h, 1 µM / half-life at 2 h, 1 µM: Sprague-Dawley, rat, hepatocytes; for half-life at 2 h, 1 µM: read-out: HEP t1/2; for Remaining Percentages: rat hepatocytes
Procedure: (§5) Microsome stability was assessed in duplicate (n = 2) in the presence and absence of nicotinamide adenine dinucleotide phosphate (NADPH) with liver microsomes (0.5 mg/mL) from human (BD Gentest) and Sprague-Dawley rats (BD Gentest). Compounds were incubated in liver microsomes at 1 μM and samples (30 μL) were taken at 0.5, 15, 30, 45, and 60 min time points for analysis by LC-MS/MS. Hepatocyte stability was assessed in duplicate (n = 2) at a working cell density of 0.5 × 10^6 cells/mL with hepatocytes from human (BiolVT), Sprague-Dawley rat (BiolVT), cynomolgus monkey (RILD) or beagle dog (BiolVT). […] The in vitro half-life and intrinsic clearances were determined as previously described.[76]
(§6) In vitro half-life (in vitro t1/2) was determined from the slope value in [drawing 1] where k was determined by linear regression of the natural logarithm of the remaining percentage of the parent drug vs the incubation time curve.

EGFR del E746_A750 = target: T3, EGFR del E746_A750 (Homo sapiens, UniProt P00533, DEL746-750); assay: KINOMEScan KdELECT Kd determination; type: binding
T3 construct: purchased Eurofins DiscoverX (contract assay)
Procedure: as §4

EGFRL858R = EGFRL858R (Homo sapiens, UniProt P00533, L858R); assay: KinaseProfiler enzymatic radiometric assay; type: biochemical; parameters: purchased Eurofins Cerep (KinaseProfiler, contract assay); conditions: ATP 10 μM, read-out: EGFR IC50
EGFRL858R, sequence (P00533 25-1210 L858R): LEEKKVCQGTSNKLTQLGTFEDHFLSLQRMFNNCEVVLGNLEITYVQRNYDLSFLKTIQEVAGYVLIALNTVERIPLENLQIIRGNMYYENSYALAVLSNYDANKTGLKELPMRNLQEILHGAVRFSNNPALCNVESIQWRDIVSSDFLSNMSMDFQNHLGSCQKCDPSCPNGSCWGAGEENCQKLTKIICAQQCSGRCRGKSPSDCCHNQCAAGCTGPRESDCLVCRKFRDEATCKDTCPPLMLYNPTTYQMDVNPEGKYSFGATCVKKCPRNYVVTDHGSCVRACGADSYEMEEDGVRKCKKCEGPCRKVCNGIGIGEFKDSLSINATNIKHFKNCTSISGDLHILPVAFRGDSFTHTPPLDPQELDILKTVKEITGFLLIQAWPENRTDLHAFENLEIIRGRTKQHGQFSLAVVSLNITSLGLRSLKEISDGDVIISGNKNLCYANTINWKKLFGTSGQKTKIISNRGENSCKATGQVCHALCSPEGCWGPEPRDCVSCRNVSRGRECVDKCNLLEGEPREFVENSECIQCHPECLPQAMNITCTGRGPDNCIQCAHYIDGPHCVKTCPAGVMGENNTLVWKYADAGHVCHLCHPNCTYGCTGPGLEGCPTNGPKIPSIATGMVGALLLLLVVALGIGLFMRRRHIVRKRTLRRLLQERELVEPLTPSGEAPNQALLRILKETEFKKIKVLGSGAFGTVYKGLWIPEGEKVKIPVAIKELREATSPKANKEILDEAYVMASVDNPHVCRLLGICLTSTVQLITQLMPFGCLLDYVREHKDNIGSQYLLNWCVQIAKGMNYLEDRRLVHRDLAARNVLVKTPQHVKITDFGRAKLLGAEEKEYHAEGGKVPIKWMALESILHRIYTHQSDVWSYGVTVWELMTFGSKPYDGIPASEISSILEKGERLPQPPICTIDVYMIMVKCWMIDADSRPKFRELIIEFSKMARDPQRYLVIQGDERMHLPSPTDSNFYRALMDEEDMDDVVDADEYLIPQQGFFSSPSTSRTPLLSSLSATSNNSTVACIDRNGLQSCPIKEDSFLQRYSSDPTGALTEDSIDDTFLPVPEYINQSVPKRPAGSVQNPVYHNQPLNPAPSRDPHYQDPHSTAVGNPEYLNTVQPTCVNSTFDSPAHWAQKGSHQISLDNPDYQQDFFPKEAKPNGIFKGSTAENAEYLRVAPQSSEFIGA
Procedure: as §4

[6] = Plasma protein binding by equilibrium dialysis; type: in vitro ADME, mouse
Procedure: (§3) Plasma protein binding and brain tissue binding were determined by Pharmaron, Inc. using the equilibrium dialysis method. […] Following incubation, the samples were analyzed by LC-MS/MS and the concentrations of the compounds were determined in the buffer and plasma solution chambers.

[7] = test system: HCC827 (EGFR mutation = exon19del); assay: CellTiter-Glo cell viability assay; type: cell-based, human; conditions: Homo sapiens, HCC827; 72 h, unadjusted for FBS
Procedure: The NCI-H3255 cell line was obtained from CoBioer. […] NCI-H3255 cells were cultured in BEGM (Lonza) with 10% FBS. […] All cells were cultured in a humidified incubator with 5% CO2 at 37 °C.

[8] = Plasma protein binding by equilibrium dialysis; type: in vitro ADME
Procedure: as §3

MDR1 = assay: MDCKII-MDR1 permeability; type: in vitro ADME, canine; conditions: dog, MDCK-MDR1
Procedure: A 96-well HTS Transwell plate (Corning) was used for Caco-2 and MDCKII-MDR1 cell seeding. […] Plates were incubated at 37 °C for 2 h, and samples (50 μL) were taken at the beginning and end of the incubation in both the donor and acceptor wells with the assay run in duplicate (n = 2). Samples were analyzed by LC-MS/MS.
The efflux ratio was determined by using the following equation: [drawing 4] where Papp (B–A) indicates the apparent permeability in the basolateral to apical direction and Papp (A–B) indicates the apparent permeability in the apical to basolateral direction.

[9] = Metabolic stability in hepatocytes; type: in vitro ADME, human; conditions: for Remaining Percentages: human hepatocytes; for hepatocyte CLint at 2 h, 1 µM / half-life at 2 h, 1 µM: human, hepatocytes; for half-life at 2 h, 1 µM: read-out: HEP t1/2
Procedure: as §5, §6

YANK2 = target: T4, YANK2 (Homo sapiens, UniProt Q9NY57); assay: KINOMEScan; type: binding; conditions: YANK2, 1 µM; read-out: Percent Control
T4 construct: purchased Eurofins DiscoverX (KINOMEScan service)
T4 sequence (Q9NY57 whole entry): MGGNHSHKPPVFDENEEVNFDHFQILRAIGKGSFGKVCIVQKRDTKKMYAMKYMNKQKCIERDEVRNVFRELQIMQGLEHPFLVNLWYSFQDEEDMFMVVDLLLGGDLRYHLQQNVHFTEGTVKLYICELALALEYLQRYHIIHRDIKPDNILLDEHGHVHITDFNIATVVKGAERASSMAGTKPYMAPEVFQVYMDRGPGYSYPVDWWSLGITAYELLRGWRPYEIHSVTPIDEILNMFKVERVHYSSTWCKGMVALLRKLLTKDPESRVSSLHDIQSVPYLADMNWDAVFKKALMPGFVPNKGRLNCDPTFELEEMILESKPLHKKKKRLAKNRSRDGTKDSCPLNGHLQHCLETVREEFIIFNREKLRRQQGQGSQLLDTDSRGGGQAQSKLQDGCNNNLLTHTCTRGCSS
Description: (§7) Percent control was mapped onto the kinome tree using TREEspot.

CYP2D6 = CYP2D6 (Homo sapiens, UniProt P10635); assay: CYP2D6 time-dependent inhibition in primary human hepatocytes; conditions: for Inhibition percentage(%) at Top conc.: human hepatocytes; for IC50 at 5 min: human, primary human hepatocytes, probe dextromethorphan (40 μM), O-demethylation
CYP2D6, sequence (P10635 whole entry): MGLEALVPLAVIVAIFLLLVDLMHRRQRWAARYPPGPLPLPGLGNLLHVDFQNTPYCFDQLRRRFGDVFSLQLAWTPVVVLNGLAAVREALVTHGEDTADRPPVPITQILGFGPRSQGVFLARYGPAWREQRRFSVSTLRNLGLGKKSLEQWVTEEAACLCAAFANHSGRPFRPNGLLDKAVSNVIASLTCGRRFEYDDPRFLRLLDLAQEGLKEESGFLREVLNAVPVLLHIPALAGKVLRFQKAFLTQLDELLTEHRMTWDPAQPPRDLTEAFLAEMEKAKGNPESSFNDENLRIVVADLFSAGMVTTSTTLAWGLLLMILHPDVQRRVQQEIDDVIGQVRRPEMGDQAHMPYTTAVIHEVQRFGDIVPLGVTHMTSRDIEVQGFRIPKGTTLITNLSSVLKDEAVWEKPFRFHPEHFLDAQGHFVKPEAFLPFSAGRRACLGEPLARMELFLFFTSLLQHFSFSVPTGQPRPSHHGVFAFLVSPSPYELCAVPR

CYP2C9 = target: T5, CYP2C9 (Homo sapiens, UniProt P11712); type: in vitro ADME; conditions: liver microsomes
T5 construct: tissue BD Gentest; host or cells: pooled human liver microsomes
T5 sequence (P11712 whole entry): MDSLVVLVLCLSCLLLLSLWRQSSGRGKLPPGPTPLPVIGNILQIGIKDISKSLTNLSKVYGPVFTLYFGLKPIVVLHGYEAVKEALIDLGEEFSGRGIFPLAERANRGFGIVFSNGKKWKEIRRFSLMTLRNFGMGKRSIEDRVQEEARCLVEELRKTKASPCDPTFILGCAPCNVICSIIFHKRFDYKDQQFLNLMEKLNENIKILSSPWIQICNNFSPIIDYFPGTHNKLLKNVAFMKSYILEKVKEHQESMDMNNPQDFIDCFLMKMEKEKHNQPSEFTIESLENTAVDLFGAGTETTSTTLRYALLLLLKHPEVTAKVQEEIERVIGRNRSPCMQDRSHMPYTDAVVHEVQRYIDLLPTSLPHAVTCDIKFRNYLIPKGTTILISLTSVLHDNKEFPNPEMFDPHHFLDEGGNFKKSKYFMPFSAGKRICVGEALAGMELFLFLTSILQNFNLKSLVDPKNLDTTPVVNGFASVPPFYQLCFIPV
Procedure: The activities tested were CYP1A2-mediated phenacetin O-demethylation, CYP2C19-mediated (S)-mephenyotin 4′-hydroxylation, CYP2C9-mediated diclofenac 4′-hydroxylation, CYP2D6-mediated dextromethorphan O-demethylation, and CYP3A4-mediated midazolam 1′-hydroxylation. […] The reactions were initiated by adding NADPH (1 mM final concentration) after a 5 min preincubation, and the assay was run in duplicate (n = 2). Samples were analyzed by ultra-performance liquid chromatography tandem mass spectrometry (UPLC-MS/MS).

WNK4 = target: T6, WNK4 (Homo sapiens, UniProt Q96J92); assay: KINOMEScan; type: binding; conditions: WNK4, 1 µM; read-out: Percent Control
T6 construct: purchased Eurofins DiscoverX (KINOMEScan service)
Description: as §7

[10] = CD-1, mouse, mouse plasma, read-out: %Bound (converted)
[11] = CD-1, plasma, mouse, 5 μM, read-out: fu,plasma% / %Unbound
[12] = Sprague-Dawley, rat, plasma, 5 μM, read-out: fu,plasma% / %Unbound
[13] = Sprague-Dawley, rat, rat plasma
[14] = Sprague-Dawley, rat, rat plasma, read-out: %Bound (converted)
[15] = human, human plasma, read-out: fu,plasma% / %Unbound (converted)
[16] = plasma, human, 5 μM, read-out: fu,plasma% / %Unbound (converted)
[17] = CYP2D6 IC50, human hepatocytes, pre-incubation 30 min

COc1cc2ncnc(Nc3cccc(Cl)c3F)c2cc1OCCON1CCOCC1 [Compound 7, N-(3-Chloro-2-fluorophenyl)-7-methoxy-6-(2-(morpholinooxy)ethoxy)quinazolin-4-amine]
IC50 [1]: 5 nM | IC50 [2]: 2.5 nM | Kd (EGFRwt [3]): < 0.2 nM | IC50 (EGFRwt [4]): 3 nM | IC50 (hERG): 8.48 ± 3.5 µM | hepatocyte CLint at 2 h, 1 µM [5]: 126 µL/min/1e6 cells | half-life at 2 h, 1 µM [5]: 11 min | Remaining Percentages ([5]; 15 min): 38.18% | Remaining Percentages ([5]; 30 min): 15.61% | Remaining Percentages ([5]; 60 min): 2.48% | Remaining Percentages ([5]; 90 min): 0.92% | Remaining Percentages ([5]; 120 min): 0.74% | Kd (EGFR del E746_A750): < 0.2 nM | IC50 (EGFRL858R): 1 nM | recovery at 6 h, 5 μM ([6]; CD-1, mouse, mouse plasma): 98.4% | remaining at 6 h, 5 μM ([6]; CD-1, mouse, mouse plasma): 102% | fraction unbound at 6 h, 5 μM [6, 10]: 0.0665 | fraction unbound at 6 h, 5 μM [6, 11]: 0.0665 | IC50 [7]: 0.31 nM | fraction unbound at 6 h, 5 μM [8, 12]: 0.105 | recovery at 6 h, 5 μM [8, 13]: 110% | remaining at 6 h, 5 μM [8, 13]: 101% | fraction unbound at 6 h, 5 μM [8, 14]: 0.105 | recovery at 6 h, 5 μM ([8]; human, human plasma): 98.9% | remaining at 6 h, 5 μM ([8]; human, human plasma): 99.4% | fraction unbound at 6 h, 5 μM [8, 15]: 0.0412 | fraction unbound at 6 h, 5 μM [8, 16]: 0.0412 | efflux ratio at 2 h, 1 µM (MDR1): 1.1 | efflux ratio at 2 h, 1 μM (MDR1): 1.06 | Papp A→B at 2 h, 1 µM (MDR1): 12.6 ×10⁻⁶ cm/s | Papp A→B at 2 h, 1 μM (MDR1): 12.6 ×10⁻⁶ cm/s | Papp B→A at 2 h, 1 µM (MDR1): 13.3 ×10⁻⁶ cm/s | Papp B→A at 2 h, 1 μM (MDR1): 13.3 ×10⁻⁶ cm/s | Remaining Percentages ([9]; 15 min): 96.13% | Remaining Percentages ([9]; 30 min): 87.34% | Remaining Percentages ([9]; 60 min): 76.27% | Remaining Percentages ([9]; 90 min): 61.58% | Remaining Percentages ([9]; 120 min): 45.68% | hepatocyte CLint at 2 h, 1 µM [9]: 13 µL/min/1e6 cells | half-life at 2 h, 1 µM [9]: 108 min

COc1cc2ncnc(Nc3cccc(Cl)c3F)c2cc1OCCON1CCN(C)CC1 [Compound 9, N-(3-Chloro-2-fluorophenyl)-7-methoxy-6-(2-((4-methylpiperazin-1-yl)oxy)ethoxy)quinazolin-4-amine]
IC50 [1]: 4.6 nM | IC50 [2]: 2.5 nM | Kd (EGFRwt [3]): < 0.2 nM | remaining binding at 1 µM (YANK2): 93% | IC50 (EGFRwt [4]): 3 nM | %hERG inhibition (hERG; 1 μM): 17% | IC50 (hERG): 6.48 µM | hepatocyte CLint at 2 h, 1 µM [5]: 70 µL/min/1e6 cells | half-life at 2 h, 1 µM [5]: 19.7 min | Remaining Percentages ([5]; 15 min): 47.58% | Remaining Percentages ([5]; 30 min): 28.51% | Remaining Percentages ([5]; 60 min): 11.71% | Remaining Percentages ([5]; 90 min): 4.98% | Remaining Percentages ([5]; 120 min): 2.53% | Kd (EGFR del E746_A750): < 0.2 nM | IC50 (CYP2D6; [17]): 4.75 µM | Inhibition percentage(%) at Top conc. (CYP2D6; 0 min): 63.41% | Inhibition percentage(%) at Top conc. (CYP2D6; 30 min): 66.54% | IC50 at 5 min (CYP2D6; CYP2D6 IC50, human hepatocytes, pre-incubation 0 min): 4.57 µM | IC50 at 5 min (CYP2D6; [17]): 4.73 µM | IC50 (EGFRL858R): 2 nM | recovery at 6 h, 5 μM ([6]; CD-1, mouse, mouse plasma): 95.4% | remaining at 6 h, 5 μM ([6]; CD-1, mouse, mouse plasma): 92.9% | fraction unbound at 6 h, 5 μM [6, 10]: 0.0702 | fraction unbound at 6 h, 5 µM [6, 11]: 0.07 | fraction unbound at 6 h, 5 μM [6, 11]: 0.0702 | IC50 (CYP2C9): > 30 µM | IC50 [7]: 3.1 nM | remaining binding at 1 µM (WNK4): 95% | fraction unbound at 6 h, 5 μM [8, 12]: 0.128 | recovery at 6 h, 5 μM [8, 13]: 106% | remaining at 6 h, 5 μM [8, 13]: 99.6% | fraction unbound at 6 h, 5 μM [8, 14]: 0.128 | recovery at 6 h, 5 μM ([8]; human, human plasma): 101% | remaining at 6 h, 5 μM ([8]; human, human plasma): 102% | fraction unbound at 6 h, 5 μM [8, 15]: 0.0442 | fraction unbound at 6 h, 5 µM ([8]; plasma, human, 5 μM, read-out: fu,plasma% / %Unbound): 0.044 | fraction unbound at 6 h, 5 μM [8, 16]: 0.0442 | fu,plasma% / %Unbound ([8]; rat, 5 μM): 12.75% | efflux ratio at 2 h, 1 µM (MDR1): 0.9 | efflux ratio at 2 h, 1 μM (MDR1): 0.92 | Papp A→B at 2 h, 1 µM (MDR1): 9.8 ×10⁻⁶ cm/s | Papp A→B at 2 h, 1 μM (MDR1): 9.82 ×10⁻⁶ cm/s | Papp B→A at 2 h, 1 µM (MDR1): 9.1 ×10⁻⁶ cm/s | Papp B→A at 2 h, 1 μM (MDR1): 9.06 ×10⁻⁶ cm/s | Remaining Percentages ([9]; 15 min): 98.94% | Remaining Percentages ([9]; 30 min): 89.67% | Remaining Percentages ([9]; 60 min): 75.36% | Remaining Percentages ([9]; 90 min): 58.28% | Remaining Percentages ([9]; 120 min): 52.37% | hepatocyte CLint at 2 h, 1 µM [9]: 12 µL/min/1e6 cells | half-life at 2 h, 1 µM [9]: 117 min
